Laboratory results as given in article PMC7168933, “Design, Synthesis and Biochemical Evaluation of Novel Ethanoanthracenes and Related Compounds to Target Burkitt’s Lymphoma” (Pharmaceuticals, 2020).
Where two headings read alike, the source gives them in different places.

Legend:
[1] = test system: DG-75 Burkitt lymphoma cell line (EBV−, chemoresistant); experiment: cells; settings: Homo sapiens, DG-75, 48 h
[2] = test system: MUTU-1 Burkitt lymphoma cell line (EBV+); experiment: cells; settings: Mutu-1, 24 h; for IC50: read-out: IC50 MUTU-I 24 h
[3] = read-out: DG-75 Cell Viability % 1 μM, 1 μM, 48 h
[4] = read-out: DG-75 Cell Viability % 10 μM, 10 μM, 48 h
[5] = read-out: MUTU-1 Cell Viability % 1 μM, 1 μM, 24 h
[6] = read-out: MUTU-1 Cell Viability % 10 μM, 10 μM, 24 h

Row | Compound | viability at 1 µM [1, 3] [%] | viability at 0.5 µM ([1]; read-out: viable cells in DG-75 at 0.5 µM, 0.5 µM, 48 h) [%] | melting point [°C] | viability at 10 µM [1, 4] [%] | viability at 1 µM [2, 5] [%] | viability at 10 µM [2, 6] [%] | IC50 [2] [nM] | viability at 1 µM ([1]; read-out: DG-75 Cell Viability % 1 μM) [%] | viability at 10 µM ([1]; read-out: DG-75 Cell Viability % 10 μM) [%] | viability at 1 µM ([2]; read-out: MUTU-1 Cell Viability % 1 μM) [%] | viability at 10 µM ([2]; read-out: MUTU-1 Cell Viability % 10 μM) [%]
1 | CN(C)CCCN1c2ccccc2Sc2ccc(Cl)cc21 [Compound 5] | 6 to 28 | 18 to 57 |  |  |  |  |  |  |  |  | 
2 | CC/C(=C\C12c3ccccc3C(c3ccccc31)C1C(=O)OC(=O)C12)[N+](=O)[O-] (stereo not shown) [Compound 13c, (E)-9-(2-Nitrobut-1-en-1-yl)-9,10-dihydro-9,10-[3,4]furanoanthracene-12,14-dione] | 68 |  | 230 to 233 | 80.7 | 64.1 | 74.1 |  |  |  |  | 
3 | O=C1OC(=O)C2C1C1(Cl)c3ccccc3C2(/C=C/[N+](=O)[O-])c2ccccc21 (stereo not shown) [Compound 13d, (E)-9-Chloro-10-(2-nitrovinyl)-9,10-dihydro-9,10-[3,4]furanoanthracene-12,14-dione] | 98.7 |  | 275 to 277 | 102 | 35.6 | 43.5 |  |  |  |  | 
4 | C/C(=C\C12c3ccccc3C(Cl)(c3ccccc31)C1C(=O)OC(=O)C12)[N+](=O)[O-] (stereo not shown) [Compound 13e, (E)-9-Chloro-10-(2-nitroprop-1-en-1-yl)-9,10-dihydro-9,10-[3,4]furanoanthracene-12,14-dione] | 78.2 |  | 270 to 272 | 98.2 | 83.3 | 101 |  |  |  |  | 
5 | CC/C(=C\C12c3ccccc3C(Cl)(c3ccccc31)C1C(=O)OC(=O)C12)[N+](=O)[O-] (stereo not shown) [Compound 13f, (E)-9-Chloro-10-(2-nitrobut-1-en-1-yl)-9,10-dihydro-9,10-[3,4]furanoanthracene-12,14-dione] | 79.9 |  | 259 to 263 | 95.1 | 85.3 | 91.6 |  |  |  |  | 
6 | C/C(=C\C12c3ccccc3C(c3ccccc31)C1C(=O)NC(=O)C12)[N+](=O)[O-] (stereo not shown) [Compound 13h, (E)-9-(2-Nitroprop-1-en-1-yl)-9,10-dihydro-9,10-[3,4]epipyrroloanthracene-12,14-dione] | 106 |  | 296 to 300 | 101 | 99.7 | 82.6 |  |  |  |  | 
7 | CC/C(=C\C12c3ccccc3C(c3ccccc31)C1C(=O)NC(=O)C12)[N+](=O)[O-] (stereo not shown) [Compound 13i, (E)-9-(2-Nitrobut-1-en-1-yl)-9,10-dihydro-9,10-[3,4]epipyrroloanthracene-12,14-dione] | 96.3 |  | 296 to 298 | 89.4 | 91.1 | 73 |  |  |  |  | 
8 | C/C(=C\C12c3ccccc3C(Cl)(c3ccccc31)C1C(=O)NC(=O)C12)[N+](=O)[O-] (stereo not shown) [Compound 13k, (E)-9-Chloro-10-(2-nitroprop-1-en-1-yl)-9,10-dihydro-9,10-[3,4]epipyrroloanthracene-12,14-dione] | 78.2 |  | 295 to 297 | 101 | 83.3 | 51.6 |  |  |  |  | 
9 | CC/C(=C\C12c3ccccc3C(Cl)(c3ccccc31)C1C(=O)NC(=O)C12)[N+](=O)[O-] (stereo not shown) [Compound 13l, (E)-9-Chloro-10-(2-nitrobut-1-en-1-yl)-9,10-dihydro-9,10-[3,4]epipyrroloanthracene-12,14-dione] | 90 |  | 294 to 298 | 102 | 88.6 | 88.3 |  |  |  |  | 
10 | O=C1OC(=O)C2C1C1c3ccccc3C2(CC[N+](=O)[O-])c2ccccc21 (stereo not shown) [Compound 14a, 9-(2-Nitroethyl)-9,10-dihydro-9,10-[3,4]furanoanthracene-12,14-dione] | 83 |  | 242 to 244 | 102 | 76.7 | 99.3 |  |  |  |  | 
11 | O=C1NC(=O)C2C1C1c3ccccc3C2(CC[N+](=O)[O-])c2ccccc21 (stereo not shown) [Compound 14b, 9-(2-Nitroethyl)-9,10-dihydro-9,10-[3,4]epipyrroloanthracene-12,14-dione] | 79.3 |  | 295 to 297 | 101 | 58.5 | 95 |  |  |  |  | 
12 | O=C1C2C3c4ccccc4C(CC[N+](=O)[O-])(c4ccccc43)C2C(=O)N1c1ccccc1 (stereo not shown) [Compound 14c, 9-(2-Nitroethyl)-13-phenyl-9,10-dihydro-9,10-[3,4]epipyrroloanthracene-12,14-dione] | 75.7 |  | 248 to 250 | 81.4 | 75.5 | 79.2 |  |  |  |  | 
13 | O=C1C2C3c4ccccc4C(/C=C/[N+](=O)[O-])(c4ccccc43)C2C(=O)N1c1ccc(F)cc1 (stereo not shown) [Compound 16e, (E)-13-(4-Fluorophenyl)-9-(2-nitrovinyl)-9,10-dihydro-9,10-[3,4]epipyrroloanthracene-12,14-dione] | 35.4 |  | 242 to 243 | 2.3 | 0.07 | 1.4 | 250 |  |  |  | 
14 | COc1cc(N2C(=O)C3C4c5ccccc5C(/C=C/[N+](=O)[O-])(c5ccccc54)C3C2=O)cc(OC)c1OC (stereo not shown) [Compound 16f, (E)-9-(2-Nitrovinyl)-13-(3,4,5-trimethoxyphenyl)-9,10-dihydro-9,10-[3,4]epipyrroloanthracene-12,14-dione] | 25.6 |  | 270 to 272 | 0.46 | 1.8 | 1.1 | 240 |  |  |  | 
15 | O=C1C2C3c4ccccc4C(/C=C/[N+](=O)[O-])(c4ccccc43)C2C(=O)N1c1ccc(Br)cc1 (stereo not shown) [Compound 16g, (E)-13-(4-Bromophenyl)-9-(2-nitrovinyl)-9,10-dihydro-9,10-[3,4]epipyrroloanthracene-12,14-dione] | 28.2 |  | 267 to 268 | 0.55 | 2.1 | 1.1 | 220 |  |  |  | 
16 | COC(=O)c1ccc(N2C(=O)C3C4c5ccccc5C(/C=C/[N+](=O)[O-])(c5ccccc54)C3C2=O)cc1 (stereo not shown) [Compound 16h, Methyl (E)-4-(9-(2-nitrovinyl)-12,14-dioxo-9,10-dihydro-9,10-[3,4]epipyrroloanthracen-13-yl)benzoate] | 20.8 |  | 254 to 255 | 0.18 | 2.3 | 0.79 | 200 |  |  |  | 
17 | CCOC(=O)C1CC2c3ccccc3C1(/C=C/[N+](=O)[O-])c1ccccc12 (stereo not shown) [Compound 19b, Ethyl (E)-10-(2-nitrovinyl)-9,10-dihydro-9,10-ethanoanthracene-11-carboxylate] | 9.8 |  |  | 13.4 | 48.9 | 0.69 |  |  |  |  | 
18 | COC(=O)C1CC2c3ccccc3C1(/C=C/[N+](=O)[O-])c1ccccc12 (stereo not shown) [Compound 19c, Methyl (E)-10-(2-nitrovinyl)-9,10-dihydro-9,10-ethanoanthracene-11-carboxylate] | 92.2 |  |  | 1.4 | 15.6 | 8.4 | 540 |  |  |  | 
19 | O=C1OC(=O)C2C3c4ccccc4C(c4ccccc43)C12 (stereo not shown) [Compound 21a] | 91.4 |  |  | 69.9 | 103 | 93.1 |  |  |  |  | 
20 | O=CC12c3ccccc3C(c3ccccc31)C1C(=O)OC(=O)C12 (stereo not shown) [Compound 21d] | 64.8 |  |  | 64.7 | 87.4 | 88.4 |  |  |  |  | 
21 | O=CC12c3ccccc3C(c3ccccc31)C1C(=O)NC(=O)C12 (stereo not shown) [Compound 21e] | 76 |  |  | 71.2 | 96.1 | 95.1 |  |  |  |  | 
22 | O=CC12c3ccccc3C(c3ccccc31)C1C(=O)N(c3ccccc3)C(=O)C12 (stereo not shown) [Compound 21f] | 102 |  |  | 72.4 | 102 | 77.7 |  |  |  |  | 
23 | O=C1OC(=O)C2C1C1c3ccccc3C2(C(=O)O)c2ccccc21 (stereo not shown) [Compound 21g] | 93.1 |  |  | 65.4 | 99.2 | 88.8 |  |  |  |  | 
24 | O=C1NC(=O)C2C1C1c3ccccc3C2(C(=O)O)c2ccccc21 (stereo not shown) [Compound 21h] | 86.3 |  |  | 73.1 | 92.6 | 92 |  |  |  |  | 
25 | O=C1C2C3c4ccccc4C(C(=O)O)(c4ccccc43)C2C(=O)N1c1ccccc1 (stereo not shown) [Compound 21i] | 73.2 |  |  | 67.5 | 103 | 92.5 |  |  |  |  | 
26 | O=C1OC(=O)C2C1C1c3ccccc3C2(O)c2ccccc21 (stereo not shown) [Compound 21j] | 68 |  |  | 93 | 103 | 100 |  |  |  |  | 
27 | N/N=C/C12c3ccccc3C(c3ccccc31)C1C(=O)N(c3ccccc3)C(=O)C12 (stereo not shown) [Compound 23h, (E)-9-(Hydrazonomethyl)-13-phenyl-9,10-dihydro-9,10-[3,4]epipyrroloanthracene-12,14-dione] | 85.8 |  |  | 87.4 | 91.1 | 78 |  |  |  |  | 
28 | CNCCCC12CCC(c3ccccc31)c1ccccc12 [Maprotiline 8, maprotiline, reference compound] |  |  |  |  |  |  |  | 102 | 65.1 | 93.1 | 73
